Where “and” joins values, the source holds several entries; their conditions need not be identical. Identical values can stand only once. Records with an inconclusive call do not appear.
Test system: HT29 intrarenal xenograft, nude mice, tumor weight change
Experiment: NCI In Vivo Anticancer Drug Screen. Data for tumor model HT29;CX-1 Human Adenocarcinoma (MER+) (intrarenal inoculation) in NU/NU BALB/C (nude) mice
Conditions: endpoint: mean tumor weight change, higher = larger tumour
Protocol: The antitumor activity of compounds was measured in mice bearing transplantable tumors. Survival or tumor size were measured and the results are expressed as the measurement made in the treated group (T) divided by the measurement made in the vehicle treated control group (C). The tumor model used in this assay is HT29;CX-1 Human Adenocarcinoma (MER+) (intrarenal inoculation) in NU/NU BALB/C (nude) mice

For `C(CSC1=NCCN1)CSC1=NCCN1`, the T/C (dose: 25.0 mg/kg/injection, schedule: Q01DX010 (sc), vehicle: saline) was 78 % of control, the T/C (dose: 100.0 mg/kg/injection, schedule: Q01DX010 (sc), vehicle: saline) was 66 % of control and the T/C (dose: 200.0 mg/kg/injection, schedule: Q01DX010 (sc), vehicle: saline) was 46 % of control.

For `CCC1OCC(C(Cl)CCl)O1` (centres undefined), the T/C (dose: 177.0 mg/kg/injection, schedule: Q01DX014 (sc), vehicle: other) was 57 % of control and 75 % of control, the T/C (dose: 267.0 mg/kg/injection, schedule: Q01DX014 (sc), vehicle: other) was 85 % of control and the T/C (dose: 600.0 mg/kg/injection, schedule: Q01DX014 (sc), vehicle: other) was 61 % of control. For the same compound, the T/C (dose: 900.0 mg/kg/injection, schedule: Q01DX014 (sc), vehicle: Klucel (hydroxypropylcellulose) (HPC)) was 10 % of control.

With `O=P1(N(CCCl)CCCl)NCCCO1` (centres undefined) the T/C (dose: 60.0 mg/kg/injection, schedule: Q04DX004 (ip), vehicle: saline) was 62 % of control and 77 % of control and 83 % of control and the T/C (dose: 100.0 mg/kg/injection, schedule: Q04DX004 (sc), vehicle: saline) was 19 % of control and 21 % of control.

`CC1(C)CC2(C)OC2C2(C1)N=NC(=Nc1ccccc1)O2` (centres undefined) was tested, and the T/C (dose: 75.0 mg/kg/injection, schedule: Q04DX004 (sc), vehicle: saline with Tween-80) was 16 % of control, the T/C (dose: 150.0 mg/kg/injection, schedule: Q04DX004 (sc), vehicle: saline with Tween-80) was 124 % of control and the T/C (dose: 300.0 mg/kg/injection, schedule: Q04DX004 (sc), vehicle: saline with Tween-80) was 89 % of control. For the same compound, the T/C (dose: 600.0 mg/kg/injection, schedule: Q04DX004 (sc), vehicle: saline with Tween-80) was 69 % of control.

For `CCCCNc1ccc2nnc(C)n2n1`, the T/C (dose: 150.0 mg/kg/injection, schedule: Q04DX004 (ip), vehicle: DMSO) was 116 % of control and the T/C (dose: 150.0 mg/kg/injection, schedule: Q04DX004 (ip), vehicle: sodium bicarbonate) was 86 % of control.

For `Cc1ccoc1`, the T/C (dose: 50.0 mg/kg/injection, schedule: Q01DX010 (ip), vehicle: saline with Tween-80) was 92 % of control, the T/C (dose: 100.0 mg/kg/injection, schedule: Q01DX010 (ip), vehicle: saline with Tween-80) was 63 % of control and the T/C (dose: 200.0 mg/kg/injection, schedule: Q01DX010 (ip), vehicle: saline with Tween-80) was 90 % of control.

In the case of `CN(C)P(=O)(Oc1ccccc1)N(C)C`, the T/C (dose: 1200.0 mg/kg/injection, schedule: Q04DX004 (sc), vehicle: saline with Tween-80) is reported as 78 % of control.

`COC1=C(OC)C(=O)C(SC/C=C(\C)CCCC(C)CCCC(C)CCCC(C)C)=CC1=O` (centres undefined) was tested, and the T/C (dose: 300.0 mg/kg/injection, schedule: Q04DX004 (ip), vehicle: saline with Tween-80) was 97 % of control, the T/C (dose: 600.0 mg/kg/injection, schedule: Q04DX004 (ip), vehicle: saline with Tween-80) was 83 % of control and the T/C (dose: 1200.0 mg/kg/injection, schedule: Q04DX004 (ip), vehicle: saline with Tween-80) was 88 % of control.

With `CCOC(=O)C(CC(C)C)NC(=O)C(Cc1ccc(N(CCCl)CCCl)cc1)NC(C)=O` (centres undefined) the T/C (dose: 100.0 mg/kg/injection, schedule: Q01DX010 (sc), vehicle: saline with Tween-80) was 46 % of control and the T/C (dose: 200.0 mg/kg/injection, schedule: Q01DX010 (sc), vehicle: saline with Tween-80) was 2 % of control.

From PubChem BioAssay AID208 (DTP/NCI, 2004)
